US10149887B2, “Peptides and peptidomimetics in combination with t cell activating and/or checkpoint inhibiting agents for cancer treatment” (CanBas Co., Ltd., priority 2015, dated 2018)
Read-outs that look alike come from different tables or passages of the source. Square brackets hold non-standard residues; d marks the D form. Ends that are not written are not given here. Peptide text beside a SMILES is read from it. Phe(F5) = N[C@@H](Cc1c(F)c(F)c(F)c(F)c1F)C(=O)O; dPhe(F5) = N[C@H](Cc1c(F)c(F)c(F)c(F)c1F)C(=O)O; dBpa = N[C@H](Cc1ccc(C(=O)c2ccccc2)cc1)C(=O)O; Cha = N[C@@H](CC1CCCCC1)C(=O)O; dCha = N[C@H](CC1CCCCC1)C(=O)O; Aun = NCCCCCCCCCCC(=O)O

Experiments:
Jurkat cells [1] = experiment: Side effect of peptide used alone: Jurkat cell cycle disturbance (flow cytometry); assay type: cell-based
Experimental: Cell-cycle analysis The cell cycle status of the cells treated with bleomycin or adriamcin were analyzed by flow cytometry as described by Kawabe (1997) Nature 385:454-458. In brief, two million cells were re-suspended and incubated in 200 μl Krishan's solution (0.1% Sodium citrate, 50 μg/ml PI, 20 μg/ml RNase A and 0.5% NP-40) for 1 hr at 4° C. and analyzed by a flow cytometry, FACScan™ (Beckton Dickinson, Mountain View, Calif.) with the program CELLQuest™ (Beckton Dickinson).
(§1) The “Appearance of side effect when used alone” indicates the peptide/peptidomimetic dose that produced Jurkat cell cycle disturbance, i.e., the appearance of significant amounts of SubG1 cells (dead cells) or cells in which the DNA content of each varies more than usual. […] The “G2 abrogating dose” indicates the peptide/peptidomimetic dose with 40 μg/ml bleomycine that produced detectable G2 checkpoint abrogation activity following treatment for 24 hours. The “Appearance of side effect when used with colchicine” indicates the peptide/peptidomimetic dose with 5 μg/ml colchicine that produced Jurkat cell cycle disturbance following treatment for 24 hours.

Jurkat cells [2] = experiment: M phase checkpoint abrogation / non specific toxicity, colchicine treated Jurkat cells; assay type: cell-based; settings: dose with 5 μg/ml colchicine that produced Jurkat cell cycle disturbance, 24 hours
Experimental: Flow cytometry analysis of M phase checkpoint abrogation by the compounds was performed using human T cell leukemia Jurkat cell line treated with colchicine (5 μg/ml or 0.5 μg/ml) and various doses of peptide/peptidomimetics for 24 hr (FIG. 12). The DNA of the cells was stained and analyzed by flow cytometry as described above.
as §1
A comparison between G2 checkpoint abrogating activity and non specific toxicity (M checkpoint abrogation) by CB501 was performed. In brief, Jurkat cells were treated with 40 μg/ml bleomycin or 0.5 μg/ml colchicine for G2 checkpoint abrogating activity and non specific toxicity, respectively. The DNA amount in each of the treated cells was analyzed by flow cytometry, as previously described.

Jurkat cells [3] = experiment: G2 checkpoint abrogation, flow cytometry of bleomycin treated Jurkat cells; assay type: cell-based, human; settings: Jurkat cells with bleomycin 40 μg/ml
Experimental: Flow cytometry analysis of G2 checkpoint abrogation was performed using human leukemia derived Jurkat cell line. In brief, cultured cells were treated with various doses of peptide/peptidomimetic and 40 μg/ml bleomycine for 24 hr. The DNA of the cells was stained with propidium iodide and analyzed by flow cytometry.
The G2 checkpoint abrogating activity of various arginine rich sequences at different doses on cells treated with bleomycine was studied. Briefly, peptides were added to culture medium of Jurkat cells with bleomycin (40 μg/ml) at 0.2 μg/ml, 0.39 μg/ml, 0.78 μg/ml, 1.56 μg/ml, 3.125 μg/ml, 6.25 μg/ml, 12.5 μg/ml, 25 μg/ml and 50 μg/ml. Cells were subsequently harvested after 24 hours, stained with Krishan's solution, and analyzed with flow cytometry as previously described.

[4] = dose that produced Jurkat cell cycle disturbance, peptide alone

Q: How did the “Appearance of side effect when used alone” value (“Appearance … when used alone” for short) (Jurkat cells [1]; [4]) turn out when N=C(N)NCCC[C@H](NC(=O)CNC(=O)[C@@H](N)Cc1ccc(O)cc1)C(=O)N[C@@H](CCCCN)C(=O)N[C@@H](CCCCN)C(=O)N[C@@H](CCCNC(=N)N)C(=O)N[C@@H](CCCNC(=N)N)C(=O)N[C@@H](CCC(N)=O)C(=O)N[C@@H](CCCNC(=N)N)C(=O)N[C@@H](CCCNC(=N)N)C(=O)N[C@@H](CCCNC(=N)N)C(=O)N[C@@H](CC1CCCCC1)C(=O)N[C@@H](Cc1c(F)c(F)c(F)c(F)c1F)C(=O)N[C@@H](CCCNC(=N)N)C(=O)N[C@@H](CO)C(=O)N1CCC[C@H]1C(=O)N[C@@H](CO)C(=O)N[C@@H](Cc1ccc(O)cc1)C(=O)O [CBP420, (1-Tyr)(1-Gly)(1-Arg)(1-Lys)(1-Lys)(1-Arg)(1-Arg)(1-Gln)(1-Arg)(1-Arg)(1-Arg)(1-Cha)(1-Phe-2,3,4,5,6-F)(1-Arg)(1-Ser)(1-Pro)(1-Ser)(1-Tyr)] was run?
A: >50 µM

Q: What about the “Appearance of side effect when used with Colchicine” value (“Appearance … with Colchicine” for short) (Jurkat cells [2]) of the same compound?
A: ≥50 µM

Q: For N=C(N)NCCC[C@H](NC(=O)[C@H](CCCNC(=N)N)NC(=O)[C@@H](N)CCCNC(=N)N)C(=O)N[C@@H](CC1CCCCC1)C(=O)N[C@@H](Cc1c(F)c(F)c(F)c(F)c1F)C(=O)N[C@@H](CCCNC(=N)N)C(=O)N[C@@H](CO)C(=O)N1CCC[C@H]1C(=O)N[C@@H](CO)C(=O)N[C@@H](Cc1ccc(O)cc1)C(=O)N[C@@H](Cc1ccc(O)cc1)C(=O)O [CBP430, (1-Arg)(1-Arg)(1-Arg)(1-Cha)(1-Phe-2,3,4,5,6-F)(1-Arg)(1-Ser)(1-Pro)(1-Ser)(1-Tyr)(1-Tyr)] (H-RRR[Cha][Phe(F5)]RSPSYY-OH; N-terminus and C-terminus assumed), which “Appearance … when used alone” value (Jurkat cells [1]) is on record?
A: >50 µM

Q: N=C(N)NCCC[C@H](NC(=O)[C@H](CCCNC(=N)N)NC(=O)[C@H](CCCNC(=N)N)NC(=O)[C@H](CCC(N)=O)NC(=O)[C@H](CCCNC(=N)N)NC(=O)[C@@H](N)CCCNC(=N)N)C(=O)N[C@@H](CC1CCCCC1)C(=O)N[C@@H](Cc1c(F)c(F)c(F)c(F)c1F)C(=O)N[C@@H](CCCNC(=N)N)C(=O)N[C@@H](CO)C(=O)N1CCC[C@H]1C(=O)N[C@@H](CO)C(=O)N[C@@H](Cc1ccc(O)cc1)C(=O)N[C@@H](Cc1ccc(O)cc1)C(=O)O [CBP431, (1-Arg)(1-Arg)(1-Gln)(1-Arg)(1-Arg)(1-Arg)(1-Cha)(1-Phe-2,3,4,5,6-F)(1-Arg)(1-Ser)(1-Pro)(1-Ser)(1-Tyr)(1-Tyr)] (H-RRQRRR[Cha][Phe(F5)]RSPSYY-OH; N-terminus and C-terminus assumed) was tested. Which “Appearance … when used alone” value (Jurkat cells [1]) did it give?
A: >50 µM

Q: Which “Appearance … when used alone” value (Jurkat cells [1]; [4]) does the source give for N=C(N)NCCC[C@H](NC(=O)CNC(=O)[C@@H](N)Cc1ccc(O)cc1)C(=O)N[C@@H](CCCCN)C(=O)N[C@@H](CCCCN)C(=O)N[C@@H](CCCNC(=N)N)C(=O)N[C@@H](CCCNC(=N)N)C(=O)N[C@@H](CCC(N)=O)C(=O)N[C@@H](CCCNC(=N)N)C(=O)N[C@@H](CCCNC(=N)N)C(=O)N[C@@H](CCCNC(=N)N)C(=O)N[C@@H](CC1CCCCC1)C(=O)N[C@@H](Cc1c(F)c(F)c(F)c(F)c1F)C(=O)NCCCCCCCCCCC(=O)N[C@@H](Cc1ccc(O)cc1)C(=O)N[C@@H](Cc1ccc(O)cc1)C(=O)O [CBP440, (1-Tyr)(1-Gly)(1-Arg)(1-Lys)(1-Lys)(1-Arg)(1-Arg)(1-Gln)(1-Arg)(1-Arg)(1-Arg)(1-Cha)(1-Phe-2,3,4,5,6-F)(1-aminoundecanoic acid)(1-Tyr)(1-Tyr)] here?
A: >12.5 µM

Q: And the “Appearance … with Colchicine” value (Jurkat cells [2])?
A: >3.125 µM

Q: N=C(N)NCCC[C@@H](NC(=O)[C@@H](CCCCN)NC(=O)[C@@H](CCCCN)NC(=O)[C@@H](CCCNC(=N)N)NC(=O)[C@@H](CCCNC(=N)N)NC(=O)[C@@H](CCC(N)=O)NC(=O)[C@@H](CCCNC(=N)N)NC(=O)[C@@H](CCCNC(=N)N)NC(=O)[C@@H](CCCNC(=N)N)NC(=O)[C@@H](CC1CCCCC1)NC(=O)[C@@H](Cc1c(F)c(F)c(F)c(F)c1F)NC(=O)CCCCCCCCCCNC(=O)[C@H](Cc1ccc(O)cc1)NC(=O)[C@@H](N)Cc1ccc(O)cc1)C(=O)NCC(=O)N[C@H](Cc1ccc(O)cc1)C(=O)O [CBP460, (1-Tyr)(1-Tyr)(1-aminoundecanoic acid)(d-Phe-2,3,4,5,6-F)(d-Cha)(d-Arg)(d-Arg)(d-Arg)(d-Gln)(d-Arg)(d-Arg)(d-Lys)(d-Lys)(d-Arg)(1-Gly)(d-Tyr)] (H-YY[Aun][dPhe(F5)][dCha][dR][dR][dR][dQ][dR][dR][dK][dK][dR]G[dY]-OH; N-terminus and C-terminus assumed) was tested. Which “Appearance … when used alone” value (Jurkat cells [1]; [4]) did it give?
A: >3.125 µM

Q: What about the “Appearance … with Colchicine” value (Jurkat cells [2]) of the same compound?
A: >3.125 µM

Q: What does the source list for N=C(N)NCCC[C@@H](NC(=O)[C@@H](CCCCN)NC(=O)[C@@H](CCCCN)NC(=O)[C@@H](CCCNC(=N)N)NC(=O)[C@@H](CCCNC(=N)N)NC(=O)[C@@H](CCC(N)=O)NC(=O)[C@@H](CCCNC(=N)N)NC(=O)[C@@H](CCCNC(=N)N)NC(=O)[C@@H](CCCNC(=N)N)NC(=O)[C@@H](CC1CCCCC1)NC(=O)[C@@H](Cc1c(F)c(F)c(F)c(F)c1F)NC(=O)CCCCCCCCCCNC(=O)[C@@H](N)Cc1ccc(O)cc1)C(=O)NCC(=O)N[C@H](Cc1ccc(O)cc1)C(=O)O [CBP461, (1-Tyr)(1-aminoundecanoic acid)(d-Phe-2,3,4,5,6-F)(d-Cha)(d-Arg)(d-Arg)(d-Arg)(d-Gln)(d-Arg)(d-Arg)(d-Lys)(d-Lys)(d-Arg)(1-Gly)(d-Tyr)] (H-Y[Aun][dPhe(F5)][dCha][dR][dR][dR][dQ][dR][dR][dK][dK][dR]G[dY]-OH; N-terminus and C-terminus assumed)?
A: Appearance of side effect when used alone (Jurkat cells [1]; [4]): >6.25 µM; Appearance of side effect when used with Colchicine (Jurkat cells [2]): >6.25 µM

Q: With N[C@@H](Cc1ccc(O)cc1)C(=O)NCCCCCCCCCCC(=O)N[C@H](Cc1c(F)c(F)c(F)c(F)c1F)C(=O)N[C@H](CC1CCCCC1)C(=O)O [CBP462, (1-Tyr)(1-aminoundecanoic acid)(d-Phe-2,3,4,5,6-F)(d-Cha)] (H-Y[Aun][dPhe(F5)][dCha]-OH; N-terminus and C-terminus assumed) as the compound, how does the “Appearance … when used alone” value (Jurkat cells [1]) read?
A: >50 µM

Q: N=C(N)NCCC[C@@H](NC(=O)[C@@H](CCCCN)NC(=O)[C@@H](CCCCN)NC(=O)[C@@H](CCCNC(=N)N)NC(=O)[C@@H](CCCNC(=N)N)NC(=O)[C@@H](CCC(N)=O)NC(=O)[C@@H](CCCNC(=N)N)NC(=O)[C@@H](CCCNC(=N)N)NC(=O)[C@@H](CCCNC(=N)N)NC(=O)[C@@H](CC1CCCCC1)NC(=O)[C@@H](Cc1c(F)c(F)c(F)c(F)c1F)NC(=O)CCCCCCCCCCN)C(=O)NCC(=O)N[C@H](Cc1ccc(O)cc1)C(=O)O [CBP463, (1-aminoundecanoic acid)(d-Phe-2,3,4,5,6-F)(d-Cha)(d-Arg)(d-Arg)(d-Arg)(d-Gln)(d-Arg)(d-Arg)(d-Lys)(d-Lys)(d-Arg)(1-Gly)(d-Tyr)] (H-[Aun][dPhe(F5)][dCha][dR][dR][dR][dQ][dR][dR][dK][dK][dR]G[dY]-OH; N-terminus and C-terminus assumed) was tested. Which “Appearance … when used alone” value (Jurkat cells [1]; [4]) did it give?
A: >6.25 µM

Q: What about the “Appearance … with Colchicine” value (Jurkat cells [2]) of the same compound?
A: >6.25 µM

Q: NCCCCCCCCCCC(=O)N[C@H](Cc1c(F)c(F)c(F)c(F)c1F)C(=O)N[C@H](CC1CCCCC1)C(=O)O [CBP464, (1-aminoundecanoic acid)(d-Phe-2,3,4,5,6-F)(d-Cha)] (H-[Aun]-[dPhe(F5)]-[dCha]-OH; N-terminus and C-terminus assumed) was tested. Which “Appearance … when used alone” value (Jurkat cells [1]) did it give?
A: >50 µM

Q: How did the “Appearance … when used alone” value (Jurkat cells [1]) turn out when N[C@H](Cc1c(F)c(F)c(F)c(F)c1F)C(=O)N[C@H](CC1CCCCC1)C(=O)O [CBP470, (d-Phe-2,3,4,5,6-F)(d-Cha)] (H-[dPhe(F5)]-[dCha]-OH; N-terminus and C-terminus assumed) was run?
A: >50 µM

Q: How did the “Appearance … when used alone” value (Jurkat cells [1]) turn out when N=C(N)NCCC[C@@H](NC(=O)[C@@H](CCCNC(=N)N)NC(=O)[C@@H](CCC(N)=O)NC(=O)[C@@H](CCCNC(=N)N)NC(=O)[C@@H](CCCNC(=N)N)NC(=O)[C@@H](CCCNC(=N)N)NC(=O)[C@@H](CC1CCCCC1)NC(=O)[C@@H](Cc1c(F)c(F)c(F)c(F)c1F)NC(=O)[C@@H](CO)NC(=O)[C@@H](Cc1c[nH]c2ccccc12)NC(=O)[C@@H](CO)NC(=O)[C@@H](CO)NC(=O)[C@H](N)Cc1ccc(O)cc1)C(=O)O [CBP481, (d-Tyr)(d-Ser)(d-Ser)(d-Trp)(d-Ser)(d-Phe-2,3,4,5,6-F)(d-Cha)(d-Arg)(d-Arg)(d-Arg)(d-Gln)(d-Arg)(d-Arg)] (H-[dY][dS][dS][dW][dS][dPhe(F5)][dCha][dR][dR][dR][dQ][dR][dR]-OH; N-terminus and C-terminus assumed) was run?
A: >50 µM

Q: How did the “G2 checkpoint abrogating activity (in words)” value (Jurkat cells [3]) turn out when “(d-Arg)(d-Arg)(d-Arg)(d-Arg)(d-Bpa)(d-Arg)(d-Trp)(d-Arg)(d-Phe-2,3,4,5,6-F)(d-Cha) ([dR][dR][dR][dR][dBpa][dR][dW][dR][dPhe(F5)][dCha]) [CBP702]” was run?
A: retain G2 checkpoint abrogating activity comparable to other peptides having significant G2 checkpoint abrogating activity

Q: Which “G2 checkpoint abrogating activity (in words)” value (Jurkat cells [3]) does the source give for “(d-Arg)(d-Arg)(d-Arg)(d-Bpa)(d-Arg)(d-Arg)(d-Arg)(d-Phe-2,3,4,5,6-F)(d-Cha) ([dR][dR][dR][dBpa][dR][dR][dR][dPhe(F5)][dCha]) [CBP703]” here?
A: retain G2 checkpoint abrogating activity comparable to other peptides having significant G2 checkpoint abrogating activity
